{"source": "patent US10899631B2", "about": "“Ferrous modified selenium sol for inhibiting accumulation of cadmium and arsenic in rice and preparation method and application thereof” (priority 2018, dated 2021)", "key": {"[1]": {"system": "OsLsi2", "assay": "Expression level of OsLsi2 in rice suspension cells, real-time fluorescence quantitative PCR", "type": "cell-based, Oryza sativa L. Japonica", "settings": "24 h with treatment, then 10 μM cadmium and 5 μM arsenic for 24 h, CK 4.91 ± 0.21", "description": "(§1) Method of culturing rice suspension cells (Oryza sativa L. Japonica): Selecting mature and plump seeds of Japanese rice Nipponbare, and disinfecting them with 70% alcohol by volume or 30% sodium hypochlorite by mass; evenly sowing the seeds with tweezers onto a plate containing a solid medium, and then placing the plate into an incubator to culture in the dark at a culture temperature of 25° C.; after a period of time, removing hypocotyls from the seeds with tweezers, and culturing the hypocotyls in another solid medium to obtain callus; crushing 10 g of the callus, adding it to a triangular flask containing a liquid medium (50 mL), and culturing in a shaker at 28° C. for about one month to obtain rice suspension cells.\n(§2) The basic components of the above solid medium and liquid medium are consistent, both being an MS medium. The solid medium was prepared by adding agar to the liquid medium (adding […] of the liquid medium, and then heating, melting, cooling and solidifying to obtain the solid medium). The basic formula was as follows: […]\n(§3) In order to study the effect of the ferrous modified selenium sol on the expression level of the cadmium transporter in rice suspension cells, the following treatments were performed on the rice suspension cells: […]"}, "[2]": {"system": "OsHMA3", "assay": "Expression level of OsHMA3 in rice suspension cells, real-time fluorescence quantitative PCR", "type": "cell-based, Oryza sativa L. Japonica", "settings": "24 h with treatment, then 10 μM cadmium and 5 μM arsenic for 24 h, CK 1.47 ± 0.07", "description": "as §1, §2, §3"}, "[3]": {"system": "OsLsi1", "assay": "Expression level of OsLsi1 in rice suspension cells, real-time fluorescence quantitative PCR", "type": "cell-based, Oryza sativa L. Japonica", "settings": "24 h with treatment, then 10 μM cadmium and 5 μM arsenic for 24 h, CK 4.74 ± 0.11", "description": "as §1, §2, §3"}, "[4]": {"system": "rice", "assay": "Field test of foliar barriers: content of inorganic arsenic in rice", "type": "in vivo, rice variety Huang-Li-Zhan", "settings": "sprayed once at tillering stage at 100 L/mu (T1, T4, T5); for content of inorganic arsenic in rice: control 0.280 mg/kg", "text": "(§4) The surface soil (0-30 cm) of a rice field polluted by heavy metals located in Boluo Town, Huizhou City, Guangdong Province was collected and analyzed from April to July of 2016. […] The tested rice variety was Huang-Li-Zhan.\n(§5) There were the following six treatments in the experiment: (1) Blank control (CK): An equal amount of clear water was sprayed. (2) Treatment 1 (T1): The silica sol foliar barrier (prepared in Example 3) was sprayed once on the leaves at the tillering stage of rice when the foliar barrier was diluted 50 times and sprayed at 100 L/mu. (3) Treatment 2 (T2): The selenium sol foliar barrier (prepared in Example 3) was sprayed twice on the leaves, the first at the tillering stage of rice when the foliar barrier was diluted 100 times and sprayed at 50 L/mu, the second at the heading stage of rice when the foliar barrier was diluted 100 times and sprayed at 150 L/mu. (4) Treatment 3 (T3): The selenium sol foliar barrier (prepared in Example 3) was sprayed three times on the leaves, the first at the tillering stage of rice when the foliar barrier was diluted 100 times and sprayed at 80 L/mu, the second at the heading stage of rice when the foliar barrier was diluted 100 times and sprayed at 120 L/mu, the third at the filling stage of rice when the foliar barrier was diluted 250 times and sprayed at 150 L/mu. (5) Treatment 4 (T4): The ferrous sulfate solution containing the iron element at a mass-volume ratio of 0.1% was sprayed on the leaves at the tillering stage of rice at 100 L/mu. (6) Treatment 5 (T5): The sodium selenite solution containing the selenium element at a mass-volume ratio of 0.05% was sprayed on the leaves at the tillering stage of rice at 100 L/mu.\n(§6) It was selected that the above foliar preparations were sprayed at 4-6 pm on a sunny day; when sprayed, the atomized droplets were controlled to be smaller than 1000 microns, and sprayed uniformly on both sides of the rice leaves. Each treatment was repeated four times, randomly arranged. There were totally 36 test plots, each plot having an area of 5×6=30 m^2 to ensure independent drainage and irrigation."}, "[5]": {"system": "rice", "assay": "Field test of foliar barriers: content of cadmium in rice", "type": "in vivo, rice variety Huang-Li-Zhan", "settings": "for content of cadmium in rice decreased by, compared with the control (CK) / content of cadmium in rice: sprayed once at tillering stage at 100 L/mu (T1, T4, T5); for content of cadmium in rice: control 0.308 mg/kg", "text": "as §4, §5, §6"}, "[6]": {"system": "OsLCT1", "assay": "Expression level of OsLCT1 in rice suspension cells, real-time fluorescence quantitative PCR", "type": "cell-based, Oryza sativa L. Japonica", "settings": "24 h with treatment, then 10 μM cadmium and 5 μM arsenic for 24 h, CK 4.62 ± 0.10", "description": "as §1, §2, §3"}, "[7]": {"system": "rice suspension cells", "assay": "Content of arsenic in rice suspension cells", "type": "cell-based, Oryza sativa L. Japonica", "settings": "for As content: 10 μM cadmium and 5 μM arsenic for 24 h, CK 7.12 ± 0.82; for As reduction ratio (inhibition rate of arsenic): compared with the blank control", "description": "as §1, §2\n(§7) Ferrous sulfate, sodium selenite and the ferrous modified selenium sol prepared in Examples 1, 2 and 3 were added to a rice suspension cell system, respectively, so that in the final system the ferrous sulfate solution containing the iron element at a mass-volume ratio of 0.05% (T1), the sodium selenite solution containing the selenium element at a mass-volume ratio of 0.025% (T2), and the ferrous modified selenium sol prepared in Example 1 (T3) were diluted 50 times, the ferrous modified selenium sol prepared in Example 2 was diluted 150 times (T4), and the ferrous modified selenium sol prepared in Example 3 was diluted 100 times (T5). The rice suspension cells without any treatment were used as a control (CK). After 24 h of culture, cadmium and arsenic were added to the culture system, so that the final concentrations of cadmium and arsenic were 10 μM and 5 μM, respectively. With the temperature kept constant at 28° C. in a shaker, the rice cells of each treatment were continuously cultured for 24 h and then collected. RNA was extracted from the rice cells and reversely transcribed, and the expression levels of the genes OsNramp5, OsHMA3, OsLCT1, OsLsi1 and OsLsi2 were detected.\n(§8) The rice cells obtained by the above respective treatments were collected and washed centrifugally with ultrapure water, and then the contents of cadmium and arsenic in the cells were measured."}, "[8]": {"system": "rice", "type": "in vivo, rice variety Huang-Li-Zhan", "text": "as §4, §5, §6"}, "[9]": {"system": "OsNramp5", "assay": "Expression level of OsNramp5 in rice suspension cells, real-time fluorescence quantitative PCR", "type": "cell-based, Oryza sativa L. Japonica", "settings": "24 h with treatment, then 10 μM cadmium and 5 μM arsenic for 24 h, CK 4.84 ± 0.15", "description": "as §1, §2, §3"}, "[10]": {"system": "rice suspension cells", "assay": "Content of cadmium in rice suspension cells", "type": "cell-based, Oryza sativa L. Japonica", "settings": "for Cd Content: 10 μM cadmium and 5 μM arsenic for 24 h, CK 12.8 ± 0.9; for Cd reduction ratio (inhibition rate of cadmium): compared with the blank control", "description": "as §1, §2, §7, §8"}}, "note": "Read-outs that look alike come from different tables or passages of the source."}
{"smiles": "O=S(=O)([O-])[O-].[Fe+2]", "note": "[ferrous sulfate]", "values": [{"measurement": "OsLsi2 expression", "setting": "[1]", "value": "4.78 ± 0.27"}, {"measurement": "OsHMA3 expression", "setting": "[2]", "value": "2.53 ± 0.12"}, {"measurement": "OsLsi1 expression", "setting": "[3]", "value": "4.15 ± 0.16"}, {"measurement": "content of inorganic arsenic in rice decreased by, compared with the control (CK)", "setting": "[4]", "value": 18.7, "unit": "%"}, {"measurement": "content of inorganic arsenic in rice", "setting": "[4]", "value": 0.255, "unit": "mg/kg"}, {"measurement": "cadmium and inorganic arsenic content of the treated rice against the food hygiene standard", "setting": "[5]; sol in regimens T1, T2 and T3, ferrous sulfate T4, sodium selenite T5", "value": "still exceeded the food hygiene standard"}, {"measurement": "content of cadmium in rice decreased by, compared with the control (CK)", "setting": "[5]", "value": 18.8, "unit": "%"}, {"measurement": "content of cadmium in rice", "setting": "[5]", "value": 0.250, "unit": "mg/kg"}, {"measurement": "OsLCT1 expression", "setting": "[6]", "value": "3.82 ± 0.11"}, {"measurement": "As content", "setting": "[7]", "value": "6.89 ± 0.71", "unit": "µg/g"}, {"measurement": "As reduction ratio (inhibition rate of arsenic)", "setting": "[7]", "value": 3.2, "unit": "%"}, {"measurement": "Dry production per mu", "setting": "[8]; in vivo", "value": 410, "unit": "kg"}, {"measurement": "Plot average yield", "setting": "[8]; in vivo", "value": 30.04, "unit": "abc kg"}, {"measurement": "Plot yield I", "setting": "[8]; in vivo", "value": 29.4, "unit": "kg"}, {"measurement": "Plot yield II", "setting": "[8]; in vivo", "value": 30.75, "unit": "kg"}, {"measurement": "Plot yield III", "setting": "[8]; in vivo", "value": 30.3, "unit": "kg"}, {"measurement": "Wet production per mu", "setting": "[8]; in vivo", "value": 668, "unit": "kg"}, {"measurement": "Yield increase ratio", "setting": "[8]; in vivo", "value": 6.4, "unit": "%"}, {"measurement": "Plot yield IV", "setting": "[8]; in vivo, iv", "value": 29.7, "unit": "kg"}, {"measurement": "OsNramp5 expression", "setting": "[9]", "value": "3.15 ± 0.16"}, {"measurement": "Cd Content", "setting": "[10]", "value": "8.3 ± 0.6", "unit": "µg/g"}, {"measurement": "Cd reduction ratio (inhibition rate of cadmium)", "setting": "[10]", "value": 35.2, "unit": "%"}]}
{"smiles": "O=[Se](O)O", "note": "[sodium selenite]", "values": [{"measurement": "OsLsi2 expression", "setting": "[1]", "value": "3.07 ± 0.11"}, {"measurement": "OsHMA3 expression", "setting": "[2]", "value": "2.15 ± 0.14"}, {"measurement": "OsLsi1 expression", "setting": "[3]", "value": "3.11 ± 0.17"}, {"measurement": "content of inorganic arsenic in rice decreased by, compared with the control (CK)", "setting": "[4]", "value": 16.8, "unit": "%"}, {"measurement": "content of inorganic arsenic in rice", "setting": "[4]", "value": 0.232, "unit": "mg/kg"}, {"measurement": "content of cadmium in rice decreased by, compared with the control (CK)", "setting": "[5]", "value": 10.1, "unit": "%"}, {"measurement": "content of cadmium in rice", "setting": "[5]", "value": 0.276, "unit": "mg/kg"}, {"measurement": "OsLCT1 expression", "setting": "[6]", "value": "4.42 ± 0.14"}, {"measurement": "As content", "setting": "[7]", "value": "4.96 ± 0.53", "unit": "µg/g"}, {"measurement": "As reduction ratio (inhibition rate of arsenic)", "setting": "[7]", "value": 30.3, "unit": "%"}, {"measurement": "yield of rice decreased by", "setting": "[8]; field, T5: sprayed once at tillering stage at 100 L/mu, 0.05% Se, compared with CK", "value": 3.8, "unit": "%"}, {"measurement": "Plot average yield", "setting": "[8]; field, sprayed once at tillering stage at 100 L/mu (T1, T4, T5), CK 28.05", "value": 26.95, "unit": "c kg"}, {"measurement": "Dry production per mu", "setting": "[8]; field, sprayed once at tillering stage at 100 L/mu (T1, T4, T5), CK 386", "value": 371, "unit": "kg"}, {"measurement": "Wet production per mu", "setting": "[8]; field, sprayed once at tillering stage at 100 L/mu (T1, T4, T5), CK 623", "value": 599, "unit": "kg"}, {"measurement": "Yield increase ratio", "setting": "[8]; field, sprayed once at tillering stage at 100 L/mu (T1, T4, T5), compared with CK", "value": "−3.8", "unit": "%"}, {"measurement": "Plot yield II", "setting": "[8]; field, sprayed once at tillering stage at 100 L/mu (T1, T4, T5), plot II, CK 30.15", "value": 27.15, "unit": "kg"}, {"measurement": "Plot yield III", "setting": "[8]; field, sprayed once at tillering stage at 100 L/mu (T1, T4, T5), plot III, CK 28.95", "value": 29.12, "unit": "kg"}, {"measurement": "Plot yield IV", "setting": "[8]; field, sprayed once at tillering stage at 100 L/mu (T1, T4, T5), plot IV, CK 24.3", "value": 26.13, "unit": "kg"}, {"measurement": "Plot yield I", "setting": "[8]; field, sprayed once on leaves at tillering stage at 100 L/mu (T1: sol diluted 50 times; T4: ferrous sulfate 0.1% Fe; T5: sodium selenite 0.05% Se), plot I, 30 m^2, CK 28.65", "value": 25.41, "unit": "kg"}, {"measurement": "OsNramp5 expression", "setting": "[9]", "value": "3.85 ± 0.21"}, {"measurement": "Cd Content", "setting": "[10]", "value": "9.1 ± 1.2", "unit": "µg/g"}, {"measurement": "Cd reduction ratio (inhibition rate of cadmium)", "setting": "[10]", "value": 28.9, "unit": "%"}]}
